Earlier results as cited in patent publication US20050272714A1, “Use of targeted oxidative therapeutic formulation in treatment of diabetes and obesity” (priority 2004, published 2005).

Experiments:
[1] = system: peroxide-sensitive E. coli; conditions: infused into the blood of infected rabbits
E. coli = conditions: increasing concentration ex-vivo in rabbit or human blood

OO [hydrogen peroxide]
bactericidal effect [1]: no bactericidal effect | direct bactericidal activity (E. coli): no evidence of direct bactericidal activity
